Measured values from patent US9494592B2, “Reaction-based fluorescent probes for sulfane sulfur and the application in bioimaging” (Washington State University, priority 2013, dated 2016).

What was measured:
[1] = Effect of pH on probe fluorescence and stability; format: physicochemical; conditions: probe 5.0 μM, 50 mM PBS, 1 mM CTAB
Method: FIGS. 2A-B Fluorescence intensity changes of (FIG. 2A) 5.0 μM SSP1 and (FIG. 2B) 5.0 μM SSP2 at different pH values in the absence (▪) or presence (●) of Na2S2 (25 μM). The reactions were carried out for 10 min at 25° C. in 50 mM PBS buffer with 1 mM CTAB. Data (A) were acquired at 458 nm and excited at 380 nm. Data (B) were acquired at 518 nm and excited at 482 nm.
(§1) Unless otherwise noted, all the measurements were carried out for 10 min at 25° C. in 50 mM PBS buffer (pH 7.4) with 1 mM CTAB according to the following procedure. In a test tube, 3.5 mL of 50 mM PBS buffer (pH 7.4) and 40 μL of the stock solution of CTAB were mixed, and then added 20 μL of the stock solution of SSP1 or SSP2. The resulting solution was mixed well, followed by addition of a requisite volume of testing species sample solution. The final volume of the reaction solution was adjusted to 4 mL with 50 mM PBS buffer (pH 7.4). After mixing and then standing for 10 min at room temperature, a 4-mL portion of the reaction solution was transferred into a 1-cm quartz cell to measure fluorescence with λex=380 nm (for SSP1) or 482 nm (SSP2). In the meantime, a blank solution containing no testing species sample was prepared and measured under the same conditions for comparison. All the measurements were repeated three times and data reported were averages.

[2] = Fluorescence response of probes to Na2S2 (H2S2 equivalent) in PBS buffer with CTAB; conditions: probe 5.0 μM, Na2S2 25 μM, 50 mM PBS pH 7.4, 1 mM CTAB, rt
Method: (§2) The stock solution of SSP1 (1 mM) and SSP2 (1 mM) were prepared in CH3CN, respectively. The solutions of various testing species were prepared from Cysteine (Cys), GSH, Homocysteine (Hcy), Glutathione disulfide (GSSG), Na2S.9H2O, Na2S2O3, Na2SO3, Na2SO4, Na2S2 in 50 mM PBS buffer. The stock solution of Cetrimonium bromide (CTAB, 100 mM) and S8 (10 mM) were prepared in EtOH, respectively. The stock solution of Cys-polysulfide (10 mM) was prepared in CH3CN. All the test solution need to be freshly prepared.
as §1, with “All the measurements were repeated three times and data reported were averages.” left out

[3] = Selectivity: fluorescence response to sulfane sulfur compounds; conditions: sulfane sulfurs at 25 μM (H2S2, Cys-polysulfide, S8), probe 5.0 μM, 10 min, PBS pH 7.4, 1 mM CTAB
Method: FIGS. 5A-B Fluorescence enhancement (F/F0) of 5.0 μM probes in the presence of various reactive sulfur species. (FIG. 5A) data of SSP1 (Ex/Em=380/458 nm). (FIG. 5B) data of SSP2 (Ex/Em=482/518 nm). The reactions were carried out for 10 min at rt in PBS buffer (50 mM, pH 7.4) with 1 mM CTAB. (1) probe alone; (2) 1 mM Cys; (3) 1 mM GSH; (4) 1 mM Hcy; (5) 100 μM GSSG; (6) 100 μM Na2S; (7) 100 μM Na2S2O3; (8) 100 μM Na2SO3; (9) 100 μM Na2SO4; (10) 25 μM Na2S2; (11) 25 μM Cys-polysulfide; (12) 25 μM S8.
as §2, with “The stock solution of Cys-polysulfide (10 mM) was prepared in CH3CN. All the test solution need to be freshly prepared.” left out
Unless otherwise noted, all the measurements were carried out for 10 min at 25° C. in 50 mM PBS buffer (pH 7.4) with 1 mM CTAB according to the following procedure. […] After mixing and then standing for 10 min at room temperature, a 4-mL portion of the reaction solution was transferred into a 1-cm quartz cell to measure fluorescence with λex=380 nm (for SSP1) or 482 nm (SSP2). In the meantime, a blank solution containing no testing species sample was prepared and measured under the same conditions for comparison. […]

HeLa cells = assay: Fluorescence imaging of H2S2 in HeLa cells; format: cell-based; conditions: SSP2 50 μM 20 min
Method: (§3) FIGS. 6A-F Fluorescence images of H2S2 detection in H9c2 cells (a, b, c) and HeLa cells (d, e, f). Cells on glass coverslips were incubated with SSP2 (50 μM) for 20 min, then washed and subjected to different treatments. (a & d) controls (no Na2S2 was added); (b & e) treated with 50 μM Na2S2; (c & f) treated with 100 μM Na2S2.
(§4) H9c2 cells and HeLa cells were grown on glass-bottom culture dishes (Corning Inc.) in DMEM supplemented with 10% (v/v) FBS, penicillin (100 U/mL) and streptomycin (100 μg/mL) at 37° C. under a humidified atmosphere containing 5% CO2. Before use, the adherent cells were washed one time with FBS-free DMEM. For intracellular H2S2 imaging, the cells were incubated with 50 μM SSP2 in FBS-free DMEM (containing 200 μM CTAB) at 37° C. for 20 min. After removal of excess probe and washed with PBS (pH 7.4), the cells were incubated with 50 or 100 uM Na2S2 for 30 min in PBS buffer (pH 7.4, containing 500 μM CTAB). Cell imaging was carried out after washing the cells three times with PBS (pH 7.4).

[4] = Fluorescence quantum yield determination; format: physicochemical; conditions: probe alone; aqueous PBS buffer solution (pH 7.4)
Method: The quantum yield was calculated according to the equation:^3 (Φsample=Φstandard*(Isample/Istandard)*(Astandard/Asample)*(nsample/nstandard)^2) Φ denotes the quantum yield; I denotes the area under the fluorescence band; A denotes the absorbance at the excitation wavelength; n denotes the refractive index of the solvent.
For quantum yield of SSP1, it was determined using 7-hydroxycoumarin as a standard by comparing the area under the corrected emission spectrum of the test sample with that of a solution of 7-hydroxycoumarin excited at 330 nm in sodium phosphate buffer (0.1 M; pH 7.4), which has a quantum efficiency of 0.76 according to the literature.
For quantum yield of SSP2, Quantum yield was determined using fluorescein as a standard by comparing the area under the corrected emission spectrum of the test sample with that of a solution of fluorescein excited at 490 nm in 0.1 N NaOH, which has a quantum efficiency of 0.85 according to the literature.

H9c2 cells = assay: Fluorescence imaging of H2S2 in H9c2 cells; format: cell-based; conditions: SSP2 50 μM 20 min
Method: as §3, §4

[5] = excited at 330 nm in sodium phosphate buffer (0.1 M; pH 7.4); cited from earlier work
[6] = then Na2S2 (50 or 100 μM) for 30 min

Structure (SMILES) | hydrolytic stability at basic pH [1] | fluorescence intensity increase [2] [folds] | fluorescence response (enhancement F/F0) [3] | cell fluorescence at 100 μM versus 50 μM Na2S2 (HeLa cells; Na2S2 30 min) | cell fluorescence after Na2S2 treatment (HeLa cells; [6]) | cell fluorescence without Na2S2 (HeLa cells; washed, no Na2S2) | fluorescence quantum yield (Φ) [4] | cell fluorescence at 100 μM versus 50 μM Na2S2 (H9c2 cells; Na2S2 30 min) | cell fluorescence after Na2S2 treatment (H9c2 cells; [6]) | cell fluorescence without Na2S2 (H9c2 cells; washed, no Na2S2) | quantum efficiency of standard [5]
COc1ccc2c(c1)Oc1cc(OC(=O)c3ccccc3S)ccc1C21OC(=O)c2ccccc21 (stereo not drawn) [SSP2] | remains stable up to pH 9 | 50 | 50˜60 folds | obviously stronger fluorescence | strong fluorescence | No significant fluorescent cells | 0.05 | obviously stronger fluorescence | strong fluorescence | No significant fluorescent cells | 
O=c1ccc2ccc(O)cc2o1 [7-hydroxycoumarin] |  |  |  |  |  |  |  |  |  |  | 0.76
O=C(Oc1ccc2ccc(=O)oc2c1)c1ccccc1S [SSP1] | above pH 8, SSP1 undergoes small amount of hydrolysis | 25 | 26˜33 folds |  |  |  | 0.06 |  |  |  | 
